Test results from patent US20110136801A1, “Novel Compounds” (Dainippon Sumitomo Pharma Co. Ltd., priority 2009, published 2011).

What was measured:
human TLR7 = target: T1, human TLR7 (Homo sapiens, UniProt Q9NYK1); experiment: Human TLR7 Assay (SEAP reporter in HEK293 cells); assay type: cell-based; conditions: HEK293 cell line expressing human TLR7 and pNiFty2-SEAP reporter, overnight incubation at 37° C., 0.1% DMSO; read-out: hTLR7 EC50;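 further: Read-out is secreted alkaline phosphatase made under an NFkB/ELAM-1 composite promoter, reporting TLR7-triggered NFkB activation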
T1 construct: expressed in transfected cells; host or cells: HEK293 cell line stably expressing the pNiFty2-SEAP reporter plasmid; TLR7 in pUNO vector, blasticidin selection
T1 sequence (Q9NYK1 27-1049): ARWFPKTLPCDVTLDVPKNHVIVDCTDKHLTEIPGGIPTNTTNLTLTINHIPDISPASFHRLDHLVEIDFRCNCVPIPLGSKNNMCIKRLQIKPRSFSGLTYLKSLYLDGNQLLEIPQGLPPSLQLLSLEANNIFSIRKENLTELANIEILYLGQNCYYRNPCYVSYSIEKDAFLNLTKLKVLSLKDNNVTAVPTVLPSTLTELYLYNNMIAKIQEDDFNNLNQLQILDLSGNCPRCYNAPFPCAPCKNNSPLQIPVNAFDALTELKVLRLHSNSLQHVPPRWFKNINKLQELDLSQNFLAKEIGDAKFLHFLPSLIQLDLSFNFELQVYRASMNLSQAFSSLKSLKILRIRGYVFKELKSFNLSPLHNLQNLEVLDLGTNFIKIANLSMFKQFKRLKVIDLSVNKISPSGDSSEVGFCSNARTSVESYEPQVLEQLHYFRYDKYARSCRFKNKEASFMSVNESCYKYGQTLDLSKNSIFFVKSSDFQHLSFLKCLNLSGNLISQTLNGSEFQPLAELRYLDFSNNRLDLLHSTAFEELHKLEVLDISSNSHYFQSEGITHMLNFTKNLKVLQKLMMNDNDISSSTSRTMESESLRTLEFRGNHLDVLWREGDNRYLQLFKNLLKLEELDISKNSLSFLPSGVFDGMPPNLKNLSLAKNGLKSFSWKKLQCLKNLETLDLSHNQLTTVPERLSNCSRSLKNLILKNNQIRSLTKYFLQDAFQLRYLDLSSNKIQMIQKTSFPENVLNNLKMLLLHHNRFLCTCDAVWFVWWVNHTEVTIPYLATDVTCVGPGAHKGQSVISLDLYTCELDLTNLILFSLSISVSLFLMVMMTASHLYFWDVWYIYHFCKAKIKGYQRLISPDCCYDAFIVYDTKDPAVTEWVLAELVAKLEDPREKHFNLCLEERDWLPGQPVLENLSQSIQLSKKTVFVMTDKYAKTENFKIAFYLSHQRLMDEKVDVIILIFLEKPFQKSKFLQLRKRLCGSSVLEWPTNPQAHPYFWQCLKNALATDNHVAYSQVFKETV

Male Brown Norway rats = experiment: Antigen-induced pulmonary inflammation in a rat asthma model (eosinophils and Th2 cytokines in BALF); assay type: in vivo; conditions: BALF 48 hours after challenge
Experimental: Rats were sensitized and challenged to produce allergic airway inflammation in a similar manner to that described by Underwood et al (British Journal of Pharmacology 2002; 137: 263-275, 2002). Male Brown Norway rats were sensitized subcutaneously with ovalbumin (OVA) and aluminum hydroxide on day 0, and challenged with aerosolized OVA solution on day 14. The test compound was administered twice intratracheally 24 hours before and 24 hours after the OVA-challenge and bronchoalveolar lavage fluid (BALF) was collected 48 hours after the OVA-challenge. Then eosinophils and Th2 cytokines (IL-5 and IL-13) in the BALF were measured to evaluate efficacy of the test compounds of this invention.

[1] = 0.1 mg/kg intratracheally 24 hours before and 24 hours after OVA-challenge
[2] = 1.0 mg/kg intratracheally 24 hours before and 24 hours after OVA-challenge
[3] = 0.03 mg/kg intratracheally 24 hours before and 24 hours after OVA-challenge
[4] = 0.3 mg/kg intratracheally 24 hours before and 24 hours after OVA-challenge

Structure (SMILES)	EC50 (human TLR7)	other results
CCN(CC)CC(=O)N(CCCn1c(CCOC)nc2c(N)nc3ccccc3c21)Cc1cccc(OCC(=O)OC(C)C)c1F [Example 94, Isopropyl 2-{3-[(N-{3-[4-amino-2-(2-methoxyethyl)-1H-imidazo[4,5-c]quinolin-1-yl]propyl}-2-{diethylamino}acetamido)methy]-2-fluorophenoxy}acetate]	27.9 nM	Eosinophiles in BALF, inhibition (%) to OVA-Challenge control (Male Brown Norway rats; [1]): 68%; IL-5 in BALF, inhibition (%) to OVA-Challenge control (Male Brown Norway rats; [1]): 34%; IL-13 in BALF, inhibition (%) to OVA-Challenge control (Male Brown Norway rats; [1]): 50%; Eosinophiles in BALF, inhibition (%) to OVA-Challenge control (Male Brown Norway rats; [2]): 91%; IL-5 in BALF, inhibition (%) to OVA-Challenge control (Male Brown Norway rats; [2]): 90%; IL-13 in BALF, inhibition (%) to OVA-Challenge control (Male Brown Norway rats; [2]): 82%
CCOCc1nc2c(N)nc3ccccc3c2n1CCCN(Cc1cccc(OC(C)(C)C(=O)OC)c1)C(=O)CN(CC)CC [Example 163, Methyl 2-{3-[(N-{3-[4-amino-2-(ethoxymethyl)-1H-imidazo[4,5-c]quinolin-1-yl]propyl}-2-{diethylamino}acetamido)methyl]phenoxy}-2-methylpropanoate]	174 nM	Eosinophiles in BALF, inhibition (%) to OVA-Challenge control (Male Brown Norway rats; [3]): 45%; IL-13 in BALF, inhibition (%) to OVA-Challenge control (Male Brown Norway rats; [3]): 50%; Eosinophiles in BALF, inhibition (%) to OVA-Challenge control (Male Brown Norway rats; [4]): 65%; IL-13 in BALF, inhibition (%) to OVA-Challenge control (Male Brown Norway rats; [4]): 80%
CCCCc1nc2c(N)nc3ccccc3c2n1CCCN(Cc1cccc(OCC(=O)OC)c1)C(=O)CN(C)C [Example 9, Methyl (3-{[[3-(4-amino-2-butyl-1H-imidazo[4,5-c]quinolin-1-yl)propyl](N,N-dimethylglycyl)amino]methyl}phenoxy)acetate]	–	Eosinophiles in BALF, inhibition (%) to OVA-Challenge control (Male Brown Norway rats; [1]): 53%; IL-5 in BALF, inhibition (%) to OVA-Challenge control (Male Brown Norway rats; [1]): 66%; IL-13 in BALF, inhibition (%) to OVA-Challenge control (Male Brown Norway rats; [1]): 89%; Eosinophiles in BALF, inhibition (%) to OVA-Challenge control (Male Brown Norway rats; [2]): 77%; IL-5 in BALF, inhibition (%) to OVA-Challenge control (Male Brown Norway rats; [2]): 72%; IL-13 in BALF, inhibition (%) to OVA-Challenge control (Male Brown Norway rats; [2]): 85%
CCCCc1nc2c(N)nc3ccccc3c2n1CCCN(Cc1ccc(OCC(=O)OC)cc1)C(=O)CN1CCN(CCOC)CC1 [Example 8, Methyl {4-[([3-(4-amino-2-butyl-1H-imidazo[4,5-c]quinolin-1-yl)propyl]{[4-(2-methoxyethyl)piperazin-1-yl]acetyl}amino)methyl]phenoxy}acetate]	904 nM	–
CCOC(=O)COc1cccc(CN(CCCn2c(CCOC)nc3c(N)nc4ccccc4c32)C(=O)CN(C)C)c1 [Example 33, Ethyl 2-{3-[(N-{3-[4-amino-2-(2-methoxyethyl)-1H-imidazo[4,5-c]quinolin-1-yl]propyl}-2-(dimethylamino)acetamido)methyl]phenoxy}acetate]	177 nM	–
COCCc1nc2c(N)nc3ccccc3c2n1CCCN(Cc1cccc(OCC(=O)OC(C)C)c1)C(=O)CN1CCOCC1 [Example 112, Isopropyl 2-{3-[(N-{3-[4-amino-2-(2-methoxyethyl)-1H-imidazo[4,5-c]quinolin-1-yl]propyl}-2-morpholinoacetamido)methyl]phenoxy}acetate]	756 nM	–
CCCCc1nc2c(N)nc3ccccc3c2n1CCCN(Cc1cccc(OCC(=O)OC(C)C)c1F)C(=O)CN(C)C [Example 165, Isopropyl 2-[3-({N-[3-(4-amino-2-butyl-1H-imidazo[4,5-c]quinolin-1-yl)propyl]-2-(dimethylamino)acetamido}methyl)-2-fluorophenoxy]acetate]	297 nM	–
CCOC(=O)C(C)(C)Oc1cccc(CN(CCCn2c(CCOC)nc3c(N)nc4ccccc4c32)C(=O)CN(C)C)c1 [Example 148, Ethyl 2-{3-[(N-{3-[4-amino-2-(2-methoxyethyl)-1H-imidazo[4,5-c]quinolin-1-yl]propyl}-2-{dimethylamino}acetamido)methyl]phenoxy}-2-methylpropanoate]	115 nM	–
CCOC(=O)COc1cc(CN(CCN2CCCCC2)C(=O)NCCCCn2c(CCOC)nc3c(N)nc4ccccc4c32)ccc1F [Example 143, Ethyl 2-{5-[(3-{4-[4-amino-2-(2-methoxyethyl)-1H-imidazo[4,5-c]quinolin-1-yl]butyl}-1-{2-(piperidin-1-yl)ethyl}ureido)methyl]-2-fluorophenoxy}acetate]	49.4 nM	–
COCCc1nc2c(N)nc3ccccc3c2n1CCCCN(CCCN1CCOCC1)Cc1cccc(OCC(=O)OC(C)C)c1 [Example 133, Isopropyl 2-{3-[({4-[4-amino-2-(2-methoxyethyl)-1H-imidazo[4,5-c]quinolin-1-yl]butyl}{3-morpholinopropyl}amino)methyl]phenoxy}acetate]	114 nM	–
CCOC(=O)COc1cccc(CN(CCCn2c(CCOC)nc3c(N)nc4ccccc4c32)C(=O)CN(C)CC)c1F [Example 97, Ethyl 2-{3-[(N-{3-[4-amino-2-(2-methoxyethyl)-1H-imidazo[4,5-c]quinolin-1-yl]propyl}-2-{ethyl(methyl)amino}acetamido)methyl]-2-fluorophenoxy}acetate]	256 nM	–
CCOC(=O)COc1cccc(CN(CCCn2c(CCOC)nc3c(N)nc4ccccc4c32)C(=O)CN(CC)CC)c1F [Example 93, Ethyl 2-{3-[(N-{3-[4-amino-2-(2-methoxyethyl)-1H-imidazo[4,5-c]quinolin-1-yl]propyl}-2-{diethylamino}acetamido)methyl]-2-fluorophenoxy}acetate]	73.9 nM	–
CCCCc1nc2c(N)nc3ccccc3c2n1CCCN(Cc1cccc(OC(C)(C)C(=O)OCC)c1)C(=O)CN(CC)CC [Example 153, Ethyl 2-[3-({N-[3-(4-amino-2-butyl-1H-imidazo[4,5-c]quinolin-1-yl)propyl]-2-(diethylamino)acetamido}methyl)phenoxy]-2-methylpropanoate]	86.1 nM	–
CCOC(=O)COc1cccc(CN(CCCn2c(CCOC)nc3c(N)nc4ccccc4c32)C(=O)CN(C)C)c1F [Example 95, Ethyl 2-{3-[(N-{3-[4-amino-2-(2-methoxyethyl)-1H-imidazo[4,5-c]quinolin-1-yl]propyl}-2-{dimethylamino}acetamido)methyl]-2-fluorophenoxy}acetate]	447 nM	–
CCN(C)CC(=O)N(CCCn1c(CCOC)nc2c(N)nc3ccccc3c21)Cc1cccc(OCC(=O)OC2CCCC2)c1 [Example 111, Cyclopentyl 2-{3-[(N-{3-[4-amino-2-(2-methoxyethyl)-1H-imidazo[4,5-c]quinolin-1-yl]propyl}-2-{ethyl(methyl)amino}acetamido)methyl]phenoxy}acetate]	123 nM	–
CCCCc1nc2c(N)nc3ccccc3c2n1CCCN(Cc1cccc(OC(C)(C)C(=O)OCC)c1)C(=O)CN1CCCC1 [Example 168, Ethyl 2-[3-({N-[3-(4-amino-2-butyl-1H-imidazo[4,5-c]quinolin-1-yl)propyl]-2-(pyrrolidin-1-yl)acetamido}methyl)phenoxy]-2-methylpropanoate]	166 nM	–
CCOC(=O)C(C)Oc1cccc(CN(CCCn2c(CCOC)nc3c(N)nc4ccccc4c32)C(=O)CN(CC)CC)c1 (stereo not shown) [Example 52, Ethyl 2-{3-[(N-{3-[4-amino-2-(2-methoxyethyl)-1H-imidazo[4,5-c]quinolin-1-yl]propyl}-2-{diethylamino}acetamido)methyl]phenoxy}propanoate]	24.2 nM	–
COCCc1nc2c(N)nc3ccccc3c2n1CCCCNC(=O)N(CCN1CCCCC1)Cc1ccc(F)c(OCC(=O)OC(C)C)c1 [Example 142, Isopropyl 2-{5-[(3-{4-[4-amino-2-(2-methoxyethyl)-1H-imidazo[4,5-c]quinolin-1-yl]butyl}-1-{2-(piperidin-1-yl)ethyl}ureido)methyl]-2-fluorophenoxy}acetate]	57.5 nM	–
CCCCc1nc2c(N)nc3ccccc3c2n1CCCN(CCCN1CCOCC1)Cc1cccc(OCC(=O)OC)c1 [Example 21, Methyl (3-{[[3-(4-amino-2-butyl-1H-imidazo[4,5-c]quinolin-1-yl)propyl](3-morpholinopropyl)amino]methyl}phenoxy)acetate]	787 nM	–
